The record followed here is ChEMBL document CHEMBL1127993, “4-[5-(2,3-dihydroxyphenyl)pentyloxy]-2-hydroxy-3-propylbenzoic acid (Ro 24-0553): an orally active 5-lipoxygenase inhibitor with antiinflammatory activity” (Bioorg Med Chem Lett, 1994).

The subject of test [1] is Rattus norvegicus. Put plainly: In vivo inhibitory activity against acetic acid-induced colitis of rat at 10 mg/kg upon peroral administration. The test is classed as functional. Particulars: route oral.
In test [2] the target is T1, Polyunsaturated fatty acid 5-lipoxygenase (Rattus norvegicus, UniProt P12527).
T1 sequence (P12527 whole entry): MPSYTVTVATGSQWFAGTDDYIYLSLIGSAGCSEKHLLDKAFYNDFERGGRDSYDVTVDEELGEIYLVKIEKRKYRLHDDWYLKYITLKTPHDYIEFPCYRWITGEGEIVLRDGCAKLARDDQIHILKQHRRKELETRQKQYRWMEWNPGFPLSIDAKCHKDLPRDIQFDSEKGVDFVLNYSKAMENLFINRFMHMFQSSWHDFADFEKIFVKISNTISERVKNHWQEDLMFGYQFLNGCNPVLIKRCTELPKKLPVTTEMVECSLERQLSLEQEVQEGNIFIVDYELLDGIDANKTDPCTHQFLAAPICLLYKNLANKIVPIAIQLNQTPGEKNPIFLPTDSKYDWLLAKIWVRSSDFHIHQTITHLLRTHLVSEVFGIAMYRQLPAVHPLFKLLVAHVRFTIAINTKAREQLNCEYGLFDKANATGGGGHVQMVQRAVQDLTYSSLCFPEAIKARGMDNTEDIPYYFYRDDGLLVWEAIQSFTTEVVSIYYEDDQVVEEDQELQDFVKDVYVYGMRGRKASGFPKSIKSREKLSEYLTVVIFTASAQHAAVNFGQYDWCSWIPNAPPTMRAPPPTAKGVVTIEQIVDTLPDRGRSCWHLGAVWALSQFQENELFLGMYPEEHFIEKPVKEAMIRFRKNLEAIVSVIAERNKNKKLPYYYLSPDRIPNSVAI
As to the kind of experiment: Inhibition of 5-lipoxygenase from rat basophilic leukemia(RBL-1) cells. In kind it is cell-based.

The species entered for test [3] is Rattus norvegicus. Put plainly: Inhibitory activity against peroxidation of rat cardiac membrane liposomes. In kind it is functional.
The species entered for test [4] is Rattus norvegicus. As to the kind of experiment: Inhibitory activity against peroxidation of rat cardiac membrane liposomes at 1 uM concentration. The test is classed as functional. Particulars: Microsome.
The subject of test [5] is Rattus norvegicus. Put plainly: In vivo inhibitory activity against acetic acid-induced colitis of rat at 1 mg/kg upon peroral administration. The test is classed as functional. Particulars: route oral.
Test [6] has as its system Rattus norvegicus. Put plainly: Inhibitory activity in rat colitis model at an oral dose of 10 mg/kg; IA means inactive. The test is classed as functional, organism-based. Also noted: dose 10 mg/kg.
For test [7], the system named is Rattus norvegicus. Put plainly: Inhibition of neutrophil infiltration at 100 mg/kg in rats. In kind it is functional.
For test [8], the species on record is Homo sapiens. As to the kind of experiment: Inhibitory activity against interleukin-1 production by LPS-stimulated human monocytes; IC50 range=4-8 uM. In kind it is functional.
Test [9] relates to Rattus norvegicus. Put plainly: Reduction of necrosis at 1 mg/kg in acetic acid-induced colitis of the rat. In kind it is functional.
Test [10] relates to Mononuclear cell line. Put plainly: In vitro inhibitory activity against interleukin-1-beta biosynthesis by isolated human mononuclear cells at 10 uM. In kind it is functional.
In test [11] the test system is Rattus norvegicus. As to the kind of experiment: Percent reduction of neutrophil accumulatiom with an minimum effective dose of 100 ug/kg when administered orally twice daily for two days before induction of acetic acid-induced colitis in the rat. The test is classed as functional.
Test [12] concerns Mus musculus. As to the kind of experiment: Inhibition of the AA-induced edema in mouse ear inflammation test at 1 mg. The test is classed as functional.
Test [13] is filed under the species Mus musculus. Put plainly: Myeloperoxidase activity was determined as a measure of neutrophil infiltration at the 0.4 mg dose in the TPA treated mice. In kind it is functional.
The test system of test [14] is Mus musculus. As to the kind of experiment: Inhibition of the TPA-induced edema in mouse ear inflammation test at a topical dose of 0.4 mg. The test is classed as functional.
The species entered for test [15] is Rattus norvegicus. Put plainly: Inhibition of LTB4 biosynthesis in ionophore-stimulated rat peritoneal macrophages. In kind it is functional.
The subject of test [16] is Rattus norvegicus. Put plainly: Reduction of erythema at 1 mg/kg in acetic acid-induced colitis of the rat. The test is classed as functional.
The species named for test [17] is Homo sapiens. As to the kind of experiment: Inhibition of LTB4 biosynthesis in human neutrophils.
The test system of test [18] is Rattus norvegicus. As to the kind of experiment: Percent reduction of neutrophil accumulatiom with an minimum effective dose of 1 mg/kg when administered orally twice daily for two days before induction of acetic acid-induced colitis in the rat. In kind it is functional. Particulars: route oral.
The species named for test [19] is Rattus norvegicus. As to the kind of experiment: Inhibition of PGE-2 biosynthesis in ionophore stimulated rat peritoneal macrophages. In kind it is functional.
The species entered for test [20] is Mus musculus. As to the kind of experiment: Myeloperoxidase activity was determined as a measure of neutrophil infiltration at a 0.1 mg dose in the AA treated mice. The test is classed as functional.

The source made the active and inactive calls. The calls are words filed in the database; no cut-off is given here.

The term inhibition in vivo denotes the percentage by which the read-out fell short of the control. High values mean a strong effect, low ones a weak effect. The term IC50 denotes the midpoint of a concentration-inhibition curve. Read a high IC50 as weaker potency in that assay. The compound `CCCc1c(OCCCCCCCCc2cccc(O)c2O)ccc(C(=O)O)c1O` registered an inhibition in vivo at 10 mg/kg in test [1] of 35%. Moreover, the IC50 is 90 nM in test [2] and 300 nM in test [3].

Take `CCCc1c(OCCCCCCCCCCc2cccc(O)c2O)ccc(C(=O)O)c1O`: the IC50 in test [3] amounted to 400 nM.

Usually inhibition stands for the drop in the measured response relative to a control, in per cent. In test [4], `CCCc1c(OCCCc2cccc(O)c2O)ccc(C(=O)O)c1O` displayed an inhibition of 35%. This compound showed an inhibition in vivo at 10 mg/kg in test [1] of 54%. The IC50 in [2] was 170 nM.

For the compound `CCCc1c(OCCc2cccc(O)c2O)ccc(C(=O)O)c1O`, the inhibition in [4] was determined as 17%. Moreover, the IC50 in test [2] came out at 250 nM.

Take `CCCc1c(OCCCCCCc2cccc(O)c2O)ccc(C(=O)O)c1O`: in test [1], the inhibition in vivo at 10 mg/kg was determined as 89%. The same compound had an IC50 in [3] of 300 nM.

Take `CCCc1c(OCCCCc2cccc(O)c2O)ccc(C(=O)O)c1O`: in test [1], testing at 10 mg/kg gave an inhibition in vivo of 73%. Moreover, the IC50 in test [3] worked out at 500 nM.

In [4], `O=C(O)c1ccc(OCCCCCCc2cccc(O)c2O)cc1O` displayed an inhibition of 33%. For the same compound, the inhibition in vivo at 1 mg/kg in test [5] turned out to be 95%. Further, the IC50 in test [2] is 300 nM.

Take `CC(Cc1ccc(O)c(O)c1)C(C)Cc1ccc(O)c(O)c1` (configuration not stated) [NORDIHYDROGUAIARETIC ACID]: in test [6], the inhibition entry is “inactive”. In test [7], this compound registered an inhibition in vivo at 100 mg/kg of 70%. The concentration for half-maximal inhibition (IC50) in test [8] is 8000 nM; in [3], 100 nM.

Take `O=C(O)c1ccc(OCCCCCCc2cccc(O)c2O)cc1`: the inhibition in [4] was found to be 9%. Further, the inhibition in vivo at 10 mg/kg in test [1] is 89%. In addition, it took 200 nM to reach half-maximal inhibition in [2] (IC50).

`CCCc1cc(C(=O)O)ccc1OCCCCCCc1cccc(O)c1O` came in with an IC50 in test [3] of 680 nM.

A word on the Inhibition: it is how much of the control response was suppressed. Read a low Inhibition as little suppression. For `CCCc1c(OCCCCCc2cccc(O)c2O)ccc(C(=O)O)c1O`, the Reduction in test [9] was 77%; in [11], 38%; in test [16], 55%; in test [18] it was 88%. This compound gave an inhibition at 10 µM in test [10] of 40%. Also, the Inhibition in test [12] stood at 47%; in test [13], 88%; in [14] it was 26%; in test [20] it was 86%. The figures for the IC50 in [15], in test [17] and in [19] were 600 nM, 1000 nM and 35000 nM, respectively. In [5], this compound returned an inhibition in vivo at 1 mg/kg of 88%.
